pIC50: −log10 of the molar value. Read-outs that look alike come from different tables or passages of the source.
Legend:
[1] = molecular target: JH2 domain of human Tyk2 (Homo sapiens (Human), UniProt P29597); assay: JH2 Biochemical Assay (TR-FRET probe displacement); format: binding
[2] = molecular target: Tyk2 (Homo sapiens (Human), UniProt P29597); assay: pSTAT4 Cell Assay (MSD, NK92 cells); format: cell-based
[3] = TR-FRET probe displacement, JH2 domain
[4] = TR-FRET probe displacement, JH2 domain of human Tyk2
[5] = JH2 domain of human Tyk2, TR-FRET probe displacement

JH2 domain of human Tyk2, sequence (P29597 575-876): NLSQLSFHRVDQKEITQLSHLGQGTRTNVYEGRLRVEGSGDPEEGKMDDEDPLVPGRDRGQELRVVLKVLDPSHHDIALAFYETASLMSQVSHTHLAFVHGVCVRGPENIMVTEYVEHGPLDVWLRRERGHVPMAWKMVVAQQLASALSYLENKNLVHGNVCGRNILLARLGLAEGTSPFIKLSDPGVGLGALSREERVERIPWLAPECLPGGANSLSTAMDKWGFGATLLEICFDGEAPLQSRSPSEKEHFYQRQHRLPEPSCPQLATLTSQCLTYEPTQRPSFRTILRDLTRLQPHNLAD
Tyk2, sequence (P29597 whole entry, the tested form may be a part): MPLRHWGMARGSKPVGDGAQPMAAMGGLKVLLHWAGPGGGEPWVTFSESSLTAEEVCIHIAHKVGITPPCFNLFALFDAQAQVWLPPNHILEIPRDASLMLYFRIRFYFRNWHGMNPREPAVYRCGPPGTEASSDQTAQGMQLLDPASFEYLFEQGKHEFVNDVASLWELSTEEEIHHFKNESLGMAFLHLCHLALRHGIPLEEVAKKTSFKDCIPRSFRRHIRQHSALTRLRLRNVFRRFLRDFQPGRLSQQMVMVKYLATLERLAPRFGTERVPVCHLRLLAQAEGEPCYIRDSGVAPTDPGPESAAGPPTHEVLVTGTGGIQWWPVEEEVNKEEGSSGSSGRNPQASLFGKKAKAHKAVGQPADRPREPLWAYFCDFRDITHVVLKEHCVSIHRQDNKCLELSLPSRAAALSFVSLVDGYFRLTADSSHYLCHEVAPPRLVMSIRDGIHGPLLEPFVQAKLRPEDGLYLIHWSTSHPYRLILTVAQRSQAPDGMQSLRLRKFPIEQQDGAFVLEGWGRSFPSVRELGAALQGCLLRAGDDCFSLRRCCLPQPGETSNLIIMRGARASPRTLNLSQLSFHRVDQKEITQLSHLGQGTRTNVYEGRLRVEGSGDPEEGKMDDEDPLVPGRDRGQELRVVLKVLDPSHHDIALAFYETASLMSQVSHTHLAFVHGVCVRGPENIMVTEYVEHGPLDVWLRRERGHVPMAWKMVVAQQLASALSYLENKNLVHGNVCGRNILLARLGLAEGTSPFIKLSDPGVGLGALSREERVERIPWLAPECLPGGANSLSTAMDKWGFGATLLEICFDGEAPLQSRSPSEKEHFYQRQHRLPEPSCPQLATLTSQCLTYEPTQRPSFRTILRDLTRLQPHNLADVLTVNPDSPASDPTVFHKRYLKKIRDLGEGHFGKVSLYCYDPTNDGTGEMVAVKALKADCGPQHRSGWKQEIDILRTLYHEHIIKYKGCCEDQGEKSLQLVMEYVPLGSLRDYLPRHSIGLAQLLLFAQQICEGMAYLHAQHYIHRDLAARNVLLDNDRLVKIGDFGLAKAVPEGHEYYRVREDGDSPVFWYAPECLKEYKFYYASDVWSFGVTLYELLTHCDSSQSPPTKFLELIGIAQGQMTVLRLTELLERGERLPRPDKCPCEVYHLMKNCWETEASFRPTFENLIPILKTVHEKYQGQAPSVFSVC

Structure (SMILES) | pIC50 [1, 3] | pIC50 [2] | pIC50 [1, 4] | pIC50 ([2]; MSD) | pIC50 [1, 5]
COC1(C)CN(c2cnc(-c3cnc(NC(C)=O)cc3Nc3ccnc(C(C)(F)F)n3)cn2)C1 [Example 868, N-(4-((2-(1,1-difluoroethyl)pyrimidin-4-yl)amino)-5-(5-(3-methoxy-3-methylazetidin-1-yl)pyrazin-2-yl)pyridin-2-yl)acetamide] | ≥ 8.00 | 7.00 to 8.00 |  |  | 
COCCOc1ccnc(-c2cnc(NC(C)=O)cc2Nc2cc(C)nc(C(C)(F)F)n2)n1 [Example 777, N-(4-((2-(1,1-difluoroethyl)-6-methylpyrimidin-4-yl)amino)-5-(4-(2-methoxyethoxy)pyrimidin-2-yl)pyridin-2-yl)acetamide] | 7.00 to 8.00 | ≤ 6.00 |  |  | 
COc1cncc(-c2cnc(NC(C)=O)cc2Nc2ccnc(C(C)(F)F)n2)n1 [Example 273, N-(4-((2-(1,1-difluoroethyl)pyrimidin-4-yl)amino)-5-(6-methoxypyrazin-2-yl)pyridin-2-yl)acetamide] |  |  | 7.00 to 8.00 | 6.00 to 7.00 | 
CC(=O)Nc1cc(Nc2cc(C)nc(C34CC(CO3)C4)n2)c(-c2ccn(C)n2)cn1 [Example 562, N-(4-((2-(2-oxabicyclo[2.1.1]hexan-1-yl)-6-methylpyrimidin-4-yl)amino)-5-(1-methyl-1H-pyrazol-3-yl)pyridin-2-yl)acetamide] |  |  |  | 7.00 to 8.00 | ≥ 8.00
CCOc1cnc(NC(C)=O)cc1Nc1cc(C(C)C)nc(C(C)(F)F)n1 [Example 51, N-(4-((2-(1,1-difluoroethyl)-6-isopropylpyrimidin-4-yl)amino)-5-ethoxypyridin-2-yl)acetamide] |  |  | ≥ 8.00 | 7.00 to 8.00 | 
COc1cc(-c2cnc(NC(C)=O)cc2Nc2cc(C)nc(C34COC(C3)C4)n2)ncn1 [Example 750, N-(4-((2-(2-oxabicyclo[2.1.1]hexan-4-yl)-6-methylpyrimidin-4-yl)amino)-5-(6-methoxypyrimidin-4-yl)pyridin-2-yl)acetamide] | ≥ 8.00 | 6.00 to 7.00 |  |  | 
CC(=O)Nc1cc(Nc2cc(C)nc(C(C)(F)F)n2)c(OCc2ncc(C3CC3)o2)cn1 [Example 342, N-(5-((5-cyclopropyloxazol-2-yl)methoxy)-4-((2-(1,1-difluoroethyl)-6-methylpyrimidin-4-yl)amino)pyridin-2-yl)acetamide] |  |  | ≥ 8.00 | 6.00 to 7.00 | 
CCOc1cnc(NC(C)=O)cc1Nc1cc(NC)nc(C(C)(F)F)n1 [Example 485, N-(4-((2-(1,1-difluoroethyl)-6-(methylamino)pyrimidin-4-yl)amino)-5-ethoxypyridin-2-yl)acetamide] |  |  |  | 7.00 to 8.00 | ≥ 8.00
CC(=O)Nc1cc(Nc2cc(C(C)C)nc(C(C)(F)F)n2)c(-c2ccc3c(n2)OCC(C)(C)O3)cn1 [Example 822, N-(4-((2-(1,1-difluoroethyl)-6-isopropylpyrimidin-4-yl)amino)-5-(2,2-dimethyl-2,3-dihydro-[1,4]dioxino[2,3-b]pyridin-6-yl)pyridin-2-yl)acetamide] | ≥ 8.00 | ≥ 8.00 |  |  | 
CO[C@H]1CC[C@@H](Oc2cnc(NC(C)=O)cc2Nc2cc(C)nc(C(C)(F)F)n2)C1 [Example 513, N-(4-((2-(1,1-difluoroethyl)-6-methylpyrimidin-4-yl)amino)-5-(((1R,3S)-3-methoxycyclopentyl)oxy)pyridin-2-yl)acetamide] |  |  |  | 7.00 to 8.00 | ≥ 8.00
CCOc1cnc(NC(C)=O)cc1Nc1nc(C(C)(F)F)nc(C)c1F [Example 35, N-(4-((2-(1,1-difluoroethyl)-5-fluoro-6-methylpyrimidin-4-yl)amino)-5-ethoxypyridin-2-yl)acetamide] |  |  | ≥ 8.00 | 6.00 to 7.00 | 
CCn1ccc(-c2cnc(NC(C)=O)cc2Nc2ccnc(C(C)(F)F)n2)n1 [Example 706, N-(4-((2-(1,1-difluoroethyl)pyrimidin-4-yl)amino)-5-(1-ethyl-1H-pyrazol-3-yl)pyridin-2-yl)acetamide] |  |  |  | ≥ 8.00 | ≥ 8.00
COCCOc1nc(C)cc(Nc2cc(NC(C)=O)ncc2-c2ccn(C)n2)n1 [Example 559, N-(4-((2-(2-methoxyethoxy)-6-methylpyrimidin-4-yl)amino)-5-(1-methyl-1H-pyrazol-3-yl)pyridin-2-yl)acetamide] |  |  |  | 7.00 to 8.00 | ≥ 8.00
CCOc1cnc(NC(C)=O)cc1Nc1cc(-c2cncc(C)c2)nc(C(C)(F)F)n1 [Example 367, N-(4-((2-(1,1-difluoroethyl)-6-(5-methylpyridin-3-yl)pyrimidin-4-yl)amino)-5-ethoxypyridin-2-yl)acetamide] |  |  | ≥ 8.00 | 7.00 to 8.00 | 
[2H]C([2H])([2H])C([2H])([2H])Oc1cnc(NC(C)=O)cc1Nc1cc(-c2cnn(C(C)C)c2)nc(C(C)(F)F)n1 [Example 361, N-(4-((2-(1,1-difluoroethyl)-6-(1-isopropyl-1H-pyrazol-4-yl)pyrimidin-4-yl)amino)-5-(ethoxy-d5)pyridin-2-yl)acetamide] |  |  | ≥ 8.00 | ≥ 8.00 | 
CC(=O)Nc1cc(Nc2cc(C)nc(C(C)(F)F)n2)c(-c2csc(CN3CCN(C)CC3)n2)cn1 [Example 787, N-(4-((2-(1,1-difluoroethyl)-6-methylpyrimidin-4-yl)amino)-5-(2-((4-methylpiperazin-1-yl)methyl)thiazol-4-yl)pyridin-2-yl)acetamide] | ≥ 8.00 | ≥ 8.00 |  |  | 
CCOc1cnc(NC(C)=O)cc1Nc1cc(-c2ccc(CC)nc2)nc(C(C)(F)F)n1 [Example 368, N-(4-((2-(1,1-difluoroethyl)-6-(6-ethylpyridin-3-yl)pyrimidin-4-yl)amino)-5-ethoxypyridin-2-yl)acetamide] |  |  | ≥ 8.00 | ≥ 8.00 | 
CC(=O)Nc1cc(Nc2cc(C)nc(C(C)(F)F)n2)c(-c2ccc(CN3CCOCC3)cn2)cn1 [Example 649, N-(4′-((2-(1,1-difluoroethyl)-6-methylpyrimidin-4-yl)amino)-5-(morpholinomethyl)-[2,3′-bipyridin]-6′-yl)acetamide] |  |  |  | ≥ 8.00 | ≥ 8.00
CC(=O)Nc1cc(Nc2cc(C)nc(C(C)(C)F)n2)c(-c2cn3c(n2)COCC3)cn1 [Example 531, N-(5-(5,6-dihydrO8H-imidazo[2,1-c][1,4]oxazin-2-yl)-4-((2-(2-fluoropropan-2-yl)-6-methylpyrimidin-4-yl)amino)pyridin-2-yl)acetamide] |  |  |  | ≥ 8.00 | ≥ 8.00
CC(=O)Nc1cc(Nc2cc(-c3cnn(C(C)C)c3)nc(C(C)(F)F)n2)c(F)cn1 [Example 819, N-(4-((2-(1,1-difluoroethyl)-6-(1-isopropyl-1H-pyrazol-4-yl)pyrimidin-4-yl)amino)-5-fluoropyridin-2-yl)acetamide] | 7.00 to 8.00 | ≤ 6.00 |  |  | 
CCc1cc(Nc2cc(NC(C)=O)ncc2-c2cnc(C#N)cn2)nc(C(C)(F)F)n1 [Example 864, N-(5-(5-cyanopyrazin-2-yl)-4-((2-(1,1-difluoroethyl)-6-ethylpyrimidin-4-yl)amino)pyridin-2-yl)acetamide] | ≥ 8.00 | 7.00 to 8.00 |  |  | 
CCc1cnc(COc2cnc(NC(C)=O)cc2Nc2cc(C)nc(C(C)(F)F)n2)o1 [Example 327, N-(4-((2-(1,1-difluoroethyl)-6-methylpyrimidin-4-yl)amino)-5-((5-ethyloxazol-2-yl)methoxy)pyridin-2-yl)acetamide] |  |  | ≥ 8.00 | 7.00 to 8.00 | 
